Measurements as given in patent publication US20160176914A1, “GLYCOSYLATED CARDIOTONIC STEROIDS” (priority 2013, published 2016).
Like-named read-outs stand apart in the source and are kept apart here.

System: NCI-H460 cells
Assay: cells
Type: cell-based, Human
Conditions: for IC50: Homo sapiens, NCI-H460, H460 cells, read-out: IC50; for cytotoxicity / activity for H460 cells, in words: comparison
Procedure: Human non-small cell lung cancer cells (NCI-H460) were purchased from the American Type Culture Collection (Manassas, Va.). NCI-H460 cells were cultured in RPMI 1640 medium supplemented with 10% bovine fetal serum (FBS), 2 mM L-glutamine and 100-units/ml penicillin/streptomycin. All experiments with NCI-H460 cells were performed in medium enriched with 1% FBS serum, 2 mM L-glutamine and 100-units/ml penicillin/streptomycin. 1% FBS was used due to existing concerns about digitoxin binding to serum proteins.
Cells were seeded overnight in 96 well plates at a concentration of 1×10^4 cells/well, and then treated for 48 h with a log10 scale dilution series of the glycosylated CS compounds (e.g., digitoxin or D6-MA) dissolved in sterile filtered DMSO. Subsequently, 10 μl of 5 mg/ml MTT reagent was added to each well and then incubated for 4 h at 37° C. Isopropanol acidified with 0.04 N HCl was used to dissolve converted dye. Absorbance at 570 nm was measured using an Automated Microplate Reader ELx800 (BioTek, Winooski, Vt.). Each experiment was conducted 4 times with 4 replicate wells per concentration.
All results are presented as mean±standard deviation. For cell viability, ATPase activity and apoptosis assays, dose-response curves and concentrations that caused 50% effect (i.e. IC50) were calculated for the prepared compounds listed in Tables 1-3 in all the cell lines tested using non-linear regression analysis in GraphPad Prism 5.0 (San Diego, Calif.). Two-way analysis of variance (ANOVA) and unpaired two-tailed Student's t-test with α=0.05 were performed to compare the effect of compounds and administered dose on cell viability, apoptosis and quantified protein expression data. Post-hoc Tukey-Kramer HSD tests were conducted on significant ANOVA results. Results were considered significant when p≦0.05.

Row | SMILES | IC50 (Table 6, compounds of Table 3) [nM] | cytotoxicity / activity for H460 cells, in words | IC50 (Table 5, compounds of Table 2) [nM]
1 | C[C@@H]1O[C@@H](O[C@H]2CC[C@@]3(C)[C@H](CC[C@@H]4[C@@H]3C[C@@H](O)[C@]3(C)[C@@H](C5=CC(=O)OC5)CC[C@]43O)C2)[C@H](O)[C@H](O)[C@H]1O (stereo in doubt) [Compound 3.7, digoxigenin α-L-rhamnopyranoside] | 19 | more active than the diastereomeric α-D-sugars | –
2 | C[C@@H]1O[C@@H](O[C@H]2CC[C@@]3(C)[C@H](CC[C@@H]4[C@@H]3C[C@@H](O[Si](C)(C)C(C)(C)C)[C@]3(C)[C@@H](C5=CC(=O)OC5)CC[C@]43O)C2)[C@H](O)[C@H](O)[C@H]1O [Compound 3.11] | 2250 | – | –
3 | C[C@@H]1O[C@@H](O[C@H]2CC[C@@]3(C)[C@H](CC[C@@H]4[C@@H]3C[C@@H](O[Si](C)(C)C(C)(C)C)[C@]3(C)[C@@H](C5=CC(=O)OC5)CC[C@]43O)C2)CC[C@H]1O [Compound 3.6] | 29700 | – | –
4 | CC1OC(O[C@H]2CCC3(C)C(CCC4C3CCC3(C)[C@@H](C5=CC(=O)OC5)CC[C@]43O)C2)C(O)C(OC2CC[C@@H](O)C(C)O2)[C@H]1O (stereo partly drawn) [Compound 2.5, [2,3-dihydro-4-hydroxy-α-L-Amip-(1→3)-2,4-dihydroxy-α-L-Rhap]-Dig] | – | – | 389
5 | CC1O[C@H](OC2C(O)[C@H](OC3C(O)[C@H](O[C@H]4CCC5(C)C(CC[C@@H]6C5CCC5(C)[C@@H](C7=CC(=O)OC7)CC[C@]65O)C4)OC(C)[C@@H]3O)OC(C)[C@@H]2O)C(O)C(O)[C@@H]1O (stereo in doubt) [Compound 2.9, digitoxigenin α-D-rhamnopyranosyl-(1 → 3)-α-L-rhamnopyranosyl-(1 → 3)-α-L-rhamnopyranoside] | – | – | 86
6 | CC1O[C@@H](OC2C(O)[C@H](O[C@H]3CCC4(C)C(CC[C@@H]5C4CCC4(C)[C@@H](C6=CC(=O)OC6)CC[C@]54O)C3)OC(C)[C@@H]2O)C(O)C(O)[C@H]1O (stereo in doubt) [Compound 2.3, digitoxigenin α-L-rhamnopyranosyl-(1 → 3)-α-L-rhamnopyranoside] | – | does not significantly reduce activity | 45.5
7 | CC1O[C@H](O[C@H]2C(C)O[C@@H](O[C@H]3CCC4(C)C(CC[C@@H]5C4CCC4(C)[C@@H](C6=CC(=O)OC6)CC[C@]54O)C3)C(O)C2O)C(O)C(O)[C@@H]1O (stereo partly drawn) [Compound 2.7, digitoxigenin α-D-rhamnopyranosyl-(1 → 4)-α-L-rhamnopyranoside] | – | much greater activity | 70
8 | CC1OC(O[C@H]2CCC3(C)C(CCC4C3CCC3(C)[C@@H](C5=CC(=O)OC5)CC[C@]43O)C2)C(O)C(OC2CC[C@H](O)C(C)O2)[C@H]1O (stereo partly drawn) [Compound 2.6, [2,3-dihydro-4-hydroxy-α-D-Amip-(1→3)-2,4-dihydroxy-α-L-Rhap]-Dig] | – | – | 651
9 | CC(=O)O[C@@H]1C[C@H]2[C@@H](CC[C@@H]3C[C@@H](O[C@@H]4O[C@@H](C)[C@H](O)[C@@H](O)[C@H]4O)CC[C@@]32C)[C@@]2(O)CC[C@H](C3=CC(=O)OC3)[C@@]12C [Compound 3.8] | 5980 | – | –
10 | C[C@H]1O[C@H](O[C@H]2CC[C@@]3(C)[C@H](CC[C@@H]4[C@@H]3C[C@@H](O)[C@]3(C)[C@@H](C5=CC(=O)OC5)CC[C@]43O)C2)[C@@H](O)[C@@H](O)[C@@H]1O [Compound 3.2] | 486 | – | –
11 | CC1O[C@@H](O[C@H]2CCC3(C)C(CC[C@@H]4C3CCC3(C)[C@@H](C5=CC(=O)OC5)CC[C@]43O)C2)C(O)C(O)[C@H]1N (stereo in doubt) [Compound 2.1, digitoxigenin α-L-4-amino-rhamnopyranoside] | – | improved cytotoxicity | 5.1
12 | C[C@@H]1O[C@@H](O[C@H]2CC[C@@]3(C)[C@H](CC[C@@H]4[C@@H]3C[C@@H](O)[C@]3(C)[C@@H](C5=CC(=O)OC5)CC[C@]43O)C2)CC[C@H]1O (stereo in doubt) [Compound 3.3, digoxigenin α-L-amecitopyranoside] | 54 | more active than the diastereomeric α-D-sugars | –
13 | C[C@@H]1O[C@@H](O[C@H]2CC[C@@]3(C)[C@H](CC[C@@H]4[C@@H]3C[C@@H](OC(=O)C(C)(C)C)[C@]3(C)[C@@H](C5=CC(=O)OC5)CC[C@]43O)C2)CC[C@H]1O [Compound 3.5] | ≥ 50000 | greatly reduced activity | –
14 | CC1O[C@@H](O[C@H]2CCC3(C)C(CC[C@@H]4C3CCC3(C)[C@@H](C5=CC(=O)OC5)CC[C@]43O)C2)CC[C@H]1N (stereo partly drawn) [Compound 2.2, digitoxigenin α-L-4-amino-amecitopyranoside] | – | improved cytotoxicity | 3.1
15 | C[C@H]1O[C@H](O[C@H]2CC[C@@]3(C)[C@H](CC[C@@H]4[C@@H]3C[C@@H](O)[C@]3(C)[C@@H](C5=CC(=O)OC5)CC[C@]43O)C2)CC[C@@H]1O [Compound 3.1] | 253 | – | –
16 | CC(=O)O[C@@H]1C[C@H]2[C@@H](CC[C@@H]3C[C@@H](O[C@H]4CC[C@@H](O)[C@H](C)O4)CC[C@@]32C)[C@@]2(O)CC[C@H](C3=CC(=O)OC3)[C@@]12C [Compound 3.4] | 3440 | – | –
17 | CC1O[C@H](OC2C(O)[C@H](O[C@H]3CCC4(C)C(CC[C@@H]5C4CCC4(C)[C@@H](C6=CC(=O)OC6)CC[C@]54O)C3)OC(C)[C@@H]2O)C(O)C(O)[C@@H]1O (stereo in doubt) [Compound 2.4, digitoxigenin α-D-rhamnopyranosyl-(1 → 3)-α-L-rhamnopyranoside] | – | – | 332
18 | C[C@@H]1O[C@@H](O[C@H]2CC[C@@]3(C)[C@H](CC[C@@H]4[C@@H]3C[C@@H](OC(=O)C(C)(C)C)[C@]3(C)[C@@H](C5=CC(=O)OC5)CC[C@]43O)C2)[C@H](O)[C@H](O)[C@H]1O [Compound 3.10] | ≥ 50000 | greatly reduced activity | –
19 | CC1O[C@@H](OC2C(O)[C@H](OC3C(O)[C@H](O[C@H]4CCC5(C)C(CC[C@@H]6C5CCC5(C)[C@@H](C7=CC(=O)OC7)CC[C@]65O)C4)OC(C)[C@@H]3O)OC(C)[C@@H]2O)C(O)C(O)[C@H]1O (stereo in doubt) [Compound 2.10, digitoxigenin α-L-rhamnopyranosyl-(1 → 3)-α-L-rhamnopyranosyl-(1 → 3)-α-L-rhamnopyranoside] | – | – | 50.6
20 | C[C@@H]1O[C@@H](O[C@H]2CC[C@@]3(C)[C@H](CC[C@@H]4[C@@H]3C[C@@H](OC(=O)CCl)[C@]3(C)[C@@H](C5=CC(=O)OC5)CC[C@]43O)C2)[C@H](O)[C@H](O)[C@H]1O [Compound 3.9] | 105 | – | –
